pIC50: −log10 of the molar value.
Columns and labels:
human PDHK2 (hPDHK2) = human PDHK2 (hPDHK2) (Homo sapiens (Human), UniProt Q15119); test: Inhibitory action of PDHK2 activity in vitro (residual PDH activity after PDHK reaction); format: biochemical; conditions: PDH/hPDHK2 complex solution, PDHK reaction at room temperature for 45 min, NADH absorbance at 340 nm; read-out: kPDK2 IC50
Experimental: (§1) The inhibitory action of PDHK activity was assessed indirectly by measuring the residual PDH activity after PDHK reaction in the presence of a test compound.
(Inhibitory Action of PDHK2 Activity)
In the case of human PDHK2 (hPDHK2, NCBI Reference Database Accession number NM_002611.4), modified hPDHK2 cDNA wherein FLAG-Tag sequence was added to the N terminus of hPDHK2 cDNA clone (pReceiver-M01/PDK2-GeneCopoeia) as the base was prepared by PCR and ligated to the NdeI/EcoRI site of pET-17b vector. The recombinant construct was transformed into Escherichia coli DH5a. The recombinant clones were identified, and plasmid DNA was isolated and subjected to the DNA sequence analysis. One clone which had the expected nucleic acid sequence was selected for expression work.
For expression of hPDHK2 activity, Escherichia coli strain BL21(DE3) cells were transformed with the pET17b vector containing modified hPDHK2 cDNA. The Escherichia coli were grown to an optical density 0.6 ([…]) at 30° C. Protein expression was induced by the addition of 500 μmol/L isopropyl-β-thiogalactopyranoside. The Escherichia coli were cultured at 20° C. for 17-18 hr and harvested by centrifugation. The harvested Escherichia coli was resuspended in a suspension buffer (20 mmol/L HEPES-NaOH, 500 mmol/L sodium chloride, 1% ethylene glycol, 0.1% pluronic F-68 (pH 8.0), cOmplete, EDTA-free (pH 8.0)), and disrupted by a microfluidizer. The precipitate was removed by centrifugation and the supernatant was added to DDDDK-tagged Protein PURIFICATION GEL. DDDDK-tagged Protein PURIFICATION GEL was washed with a washing buffer (20 mmol/L HEPES-NaOH, 500 mmol/L sodium chloride, 1% ethylene glycol, 0.1% pluronic F-68 (pH 8.0)) and the bound protein was eluted with elution buffer 1 (20 mmol/L HEPES-NaOH, 100 μg/mL peptide (amino acid sequence DYKDDDDK) (SEQ ID NO: 1), 500 mmol/L sodium chloride, 1% ethylene glycol, 0.1% pluronic F-68 (pH 8.0)). The eluted fractions containing FLAG-Tagged protein were pooled, concentrated by an ultrafiltration method, added to a gel filtration column (HiLoad 26/60 Superdex 200), and eluted with elution buffer 2 (20 mmol/L HEPES-NaOH, 150 mmol/L sodium chloride, 0.5 mmol/L ethylenediaminetetraacetic acid (EDTA), 1% ethylene glycol, 0.1% pluronic F-68 (pH 8.0)). The eluted fractions were pooled and preserved at −80° C.
0.025 U/mL PDH and 0.5 μg/mL hPDHK2 were mixed in an assay buffer (50 mmol/L 3-morpholinopropanesulfonic acid (pH 7.0), 20 mmol/L dipotassium hydrogen phosphate, 60 mmol/L potassium chloride, 2 mmol/L magnesium chloride, 0.4 mmol/L EDTA, 0.2% poloxamer, 2 mmol/L dithiothreitol), and the mixture was incubated at 4° C. overnight to obtain a PDH/hPDHK2 complex solution. In the assay buffer, 0.025 U/mL PDH was mixed and incubated at 4° C. overnight to prepare a PDH solution.
The test compounds were diluted with DMSO. To measure an inhibitory action of the test compound on the PDHK activity in the PDH/hPDHK2 complex solution, PDH/hPDHK2 complex solution (20 μL), test compound (1.5 μL) and 1.06 μmol/L ATP (diluted with assay buffer) (8.5 μL) were added to a 384 well microplate and PDHK reaction was performed at room temperature for 45 min (test compound well). DMSO (1.5 μL) was added to control wells instead of test compound. In addition, DMSO (1.5 μL) was added to blank wells instead of the test compound, and PDH solution was added instead of the PDH/hPDHK2 complex solution. To measure an inhibitory action of the test compound on the PDHK activity inherent in the PDH solution, a test compound was added and the PDH solution instead of the PDH/hPDHK2 complex solution was added to a blank+test compound well.
Then, 10 μL of substrates (5 mmol/L sodium pyruvate, 5 mmol/L Coenzyme A, 12 mmol/L NAD, 5 mmol/L thiamine pyrophosphate, diluted with assay buffer) were added. The mixture was incubated at room temperature for 90 min, and the residual PDH activity was measured. […]

human PDHK1 (hPDHK1) = human PDHK1 (hPDHK1) (Homo sapiens (Human), UniProt Q15118); test: Inhibitory action of PDHK1 activity in vitro (residual PDH activity after PDHK reaction); format: biochemical; conditions: for pIC50: PDH/hPDHK1 complex solution, PDHK reaction at room temperature for 45 min, NADH absorbance at 340 nm, read-out: hPDK1 IC50
Sequence of human PDHK1 (hPDHK1) (Q15118 29-436): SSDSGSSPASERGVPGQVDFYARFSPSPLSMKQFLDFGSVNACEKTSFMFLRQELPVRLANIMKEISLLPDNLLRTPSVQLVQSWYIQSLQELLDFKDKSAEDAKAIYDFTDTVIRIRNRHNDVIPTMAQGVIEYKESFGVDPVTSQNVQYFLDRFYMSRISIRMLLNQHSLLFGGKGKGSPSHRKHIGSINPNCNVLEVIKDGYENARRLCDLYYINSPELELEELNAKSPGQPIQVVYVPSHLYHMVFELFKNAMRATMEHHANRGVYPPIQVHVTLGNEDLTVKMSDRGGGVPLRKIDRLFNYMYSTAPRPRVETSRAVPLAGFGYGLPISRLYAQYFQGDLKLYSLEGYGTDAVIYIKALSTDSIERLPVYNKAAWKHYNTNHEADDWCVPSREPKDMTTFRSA
Experimental: as §1
(Inhibitory Action of PDHK1 Activity)
In the case of human PDHK1 (hPDHK1, NCBI Reference Database Accession number NM_002610.3), a 1.3 kbp fragment encoding this protein was isolated from human liver cDNA by polymerase chain reaction (PCR). Modified hPDHK1 cDNA wherein FLAG-Tag sequence was added to the N terminus was prepared by PCR and ligated to the NdeI/EcoRI site of pET-17b vector (Merck MGaA, model number 69663-3). The recombinant construct was transformed into Escherichia coli DH5a (TOYOBO, model number DNA-903). The recombinant clones were identified, and plasmid DNA was isolated and subjected to the DNA sequence analysis. One clone which had the expected nucleic acid sequence was selected for expression work.
For expression of hPDHK1 activity, Escherichia coli strain BL21(DE3) cells (Merck KGaA, model number 69450-4) were transformed with the pET17b vector containing modified hPDHK1 cDNA. The Escherichia coli were grown to an optical density 0.6 ([…]) at 30° C. Protein expression was induced by the addition of 500 μmol/L isopropyl-β-thiogalactopyranoside. The Escherichia coli were cultured at 20° C. for 17-18 hr and harvested by centrifugation.
The harvested Escherichia coli was resuspended in a suspension buffer (20 mmol/L N-(2-hydroxyethyl)piperazine-N′-2-ethanesulfonic acid-sodium hydroxide (HEPES-NaOH), 500 mmol/L sodium chloride, 1% ethylene glycol, and 0.1% polyoxyethylene-polyoxypropylene block copolymer (Pluronic F-68), complete, EDTA-free (pH 8.0)) and disrupted by a microfluidizer M-110H (MIZUHO INDUSTRIAL CO., LTD.) or ultrasonication. The precipitate was removed by centrifugation and the supernatant was added to DDDDK-tagged Protein PURIFICATION GEL (MBL, model number 3329). DDDDK-tagged Protein PURIFICATION GEL was washed with a washing buffer (20 mmol/L HEPES-NaOH, 500 mmol/L sodium chloride, 1% ethylene glycol, 0.1% pluronic F-68 (pH 8.0)) and the bound protein was eluted with elution buffer 1 (20 mmol/L HEPES-NaOH, 100 μg/mL peptide (amino acid sequence DYKDDDDK) (SEQ ID NO: 1), 500 mmol/L sodium chloride, 1% ethylene glycol, 0.1% pluronic F-68 (pH 8.0)).
The eluted fractions containing FLAG-Tagged protein were pooled, concentrated by an ultrafiltration method, added to a gel filtration column (HiLoad 26/60 Superdex 200 (GE Healthcare, model number 17-1070-01)), and eluted with elution buffer 2 (20 mmol/L HEPES-NaOH, 150 mmol/L sodium chloride, 0.5 mmol/L ethylenediaminetetraacetic acid (EDTA), 1% ethylene glycol, 0.1% pluronic F-68 (pH 8.0)). The eluted fractions were pooled and preserved at −80° C.
0.025 U/mL PDH (porcine heart PDH complex, Sigma P7032) and 0.5 μg/mL hPDHK1 were mixed in an assay buffer (50 mmol/L 3-morpholinopropanesulfonic acid (pH 7.0), 20 mmol/L dipotassium hydrogen phosphate, 60 mmol/L potassium chloride, 2 mmol/L magnesium chloride, 0.4 mmol/L EDTA, 0.2% poloxamer, 2 mmol/L dithiothreitol), and the mixture was incubated at 4° C. overnight to obtain a PDH/hPDHK1 complex solution. In the assay buffer, 0.025 U/mL PDH was mixed and incubated at 4° C. overnight to prepare a PDH solution.
The test compounds were diluted with dimethyl sulfoxide (DMSO). To measure an inhibitory action of the test compound on the PDHK activity in the PDH/hPDHK1 complex solution, PDH/hPDHK1 complex solution (20 μL), test compound (1.5 μL) and 0.353 μmol/L ATP (diluted with assay buffer) (8.5 μL) were added to a 384 well microplate (Greiner Bio-One 781801) and PDHK reaction was performed at room temperature for 45 min (test compound well). DMSO (1.5 μL) was added to control wells instead of test compound. In addition, DMSO (1.5 μL) was added to blank wells instead of the test compound, and PDH solution was added instead of the PDH/hPDHK1 complex solution. […]

| SMILES | pIC50 (human PDHK2 (hPDHK2)) | pIC50 (human PDHK1 (hPDHK1)) | inhibition at 0.003 µM (human PDHK1 (hPDHK1); at 3 nmol/L, shown when IC50 value could not be calculated, read-out: hPDHK1 inhibitory rate at the lowest concentration of the test compound) [%] |
| --- | --- | --- | --- |
| C[C@H]1CN(C(=O)c2c3cc(F)ccc3nn2C)Cc2cnc([C@@](C)(O)C(F)(F)F)n21 [Example 1] | 8.30 | 8.22 |  |
| C[C@H]1CN(C(=O)c2nn(C)c(-c3ccc(C#N)cc3)c2Cl)Cc2cnc([C@@](C)(O)C(F)(F)F)n21 [Example 41] | 8.22 | 8.22 |  |
| C[C@H]1CN(C(=O)c2ccc(F)c(C3CC3)n2)Cc2cnc([C@@](C)(O)C(F)(F)F)n21 [Example 23] | 7.92 | 8.22 |  |
| C[C@H]1CN(C(=O)c2nc3ccc(F)cc3o2)Cc2cnc([C@@](C)(O)C(F)(F)F)n21 [Example 2] | 7.82 | 7.92 |  |
| C[C@H]1CN(C(=O)c2cc(-c3ccc(F)cc3)on2)Cc2cnc([C@@](C)(O)C(F)(F)F)n21 [Example 26] | 7.85 | 8.05 |  |
| C[C@H]1CN(C(=O)c2ccc(F)cc2C2CC2)Cc2cnc([C@@](C)(O)C(F)(F)F)n21 [Example 27] | 8.10 | 8.05 |  |
| C[C@H]1CN(C(=O)c2cc(C3CCOCC3)nn2C)Cc2cnc([C@@](C)(O)C(F)(F)F)n21 [Example 20] | 7.92 | 8.10 |  |
| C[C@H]1CN(C(=O)c2cc(-c3ccc(C#N)cc3)nn2C)Cc2cnc([C@@](C)(O)C(F)(F)F)n21 [Example 31] | 7.96 | 8.05 |  |
| C[C@H]1CN(C(=O)c2cc(-c3ccc(F)cc3F)nn2C)Cc2cnc([C@@](C)(O)C(F)(F)F)n21 [Example 47] | 8.40 | > 8.52 | 53 |
| C[C@H]1CN(C(=O)c2nn(C)c3cc(F)c(F)cc23)Cc2cnc([C@@](C)(O)C(F)(F)F)n21 [Example 10, (5,6-difluoro-1-methyl-1H-indazol-3-yl)((S)-5-methyl-3-((R)-1,1,1-trifluoro-2-hydroxypropan-2-yl)-5,6-dihydroimidazo[1,5-a]pyrazin-7(8H)-yl)methanone] | 7.89 | 8.05 |  |
| C[C@H]1CN(C(=O)c2ccc(C3(O)CCC3)cc2)Cc2cnc([C@@](C)(O)C(F)(F)F)n21 [Example 51] | 8.22 | 8.40 |  |
| C[C@H]1CN(C(=O)c2cc(C3CC3)n(CC(F)(F)F)n2)Cc2cnc([C@@](C)(O)C(F)(F)F)n21 [Example 37] | 8.10 | 8.52 |  |
| C[C@H]1CN(C(=O)c2cnn(-c3ccc(F)cc3)c2C(F)(F)F)Cc2cnc([C@@](C)(O)C(F)(F)F)n21 [Example 17] | 8.15 | 8.10 |  |
| C[C@H]1CN(C(=O)c2cc(-c3ccc(C#N)cc3)nn2C2CC2)Cc2cnc([C@@](C)(O)C(F)(F)F)n21 [Example 35] | 8.40 | 8.52 |  |
| C[C@H]1CN(C(=O)c2cc(C3CC3)nn2CC(F)(F)F)Cc2cnc([C@@](C)(O)C(F)(F)F)n21 [Example 36] | 8.30 | 8.40 |  |

More lines, now with the values ahead:

| pIC50 (human PDHK2 (hPDHK2)) | pIC50 (human PDHK1 (hPDHK1)) | inhibition at 0.003 µM (human PDHK1 (hPDHK1); at 3 nmol/L, shown when IC50 value could not be calculated, read-out: hPDHK1 inhibitory rate at the lowest concentration of the test compound) [%] | SMILES |
| --- | --- | --- | --- |
| 7.96 | 8.22 |  | Cc1cc(C#N)ccc1-c1cc(C(=O)N2Cc3cnc([C@@](C)(O)C(F)(F)F)n3[C@@H](C)C2)n(C)n1 [Example 75] |
| 7.92 | 8.10 |  | C[C@H]1CN(C(=O)c2cc3n(n2)CCO3)Cc2onc([C@@](C)(O)C(F)(F)F)c21 [Example 99] |
| 8.10 | 8.05 |  | C[C@H]1CN(C(=O)[C@H]2NCCc3ccccc32)Cc2onc([C@@](C)(O)C(F)(F)F)c21 [Example 105] |
| 8.00 | 8.00 |  | C[C@H]1CN(C(=O)c2cnc(-c3ccccc3)nc2)Cc2cnc([C@@](C)(O)C(F)(F)F)n21 [Example 56] |
| 8.52 | 8.40 |  | Cc1cc(-c2ccc(F)cc2C#N)ncc1C(=O)N1Cc2cnc([C@@](C)(O)C(F)(F)F)n2[C@@H](C)C1 [Example 59] |
| 8.15 | 8.30 |  | C[C@H]1CN(C(=O)c2cc(C#N)nn2C2CC2)Cc2onc([C@@](C)(O)C(F)(F)F)c21 [Example 114] |
| 8.22 | 8.52 |  | C[C@H]1CN(C(=O)c2cc(C3CC3)n[nH]2)Cc2onc([C@@](C)(O)C(F)(F)F)c21 [Example 111, (3-cyclopropyl-1H-pyrazol-5-yl)((R)-4-methyl-3-((R)-1,1,1-trifluoro-2-hydroxypropan-2-yl)-4,7-dihydroisoxazolo[5,4-c]pyridin-6(5H)-yl)methanone] |

Source: patent US10800784B2, “Nitrogen-containing heterocyclic amide compound and pharmaceutical use thereof” (Japan Tobacco Inc., priority 2018, dated 2020)
